Experimental findings from patent publication US20240148821A1, “PHARMACEUTICAL USE OF CYCLIC PEPTIDE COMPOUND” (CHUGAI SEIYAKU KABUSHIKI KAISHA, priority 2021, published 2024) are described below.

Numbered stars: 1 amine (or outer) side, 2 acyl side, 3 side chain; on linkers, the order of the positions; unused ones are H or OH. Bridge positions count the residues as written; N and C are the ends. Square brackets hold non-standard residues; d marks the D form. Peptide text beside a SMILES is read from it. * marks the point of attachment. hPhe(3,5-F2-4-CF3) = N[C@@H](CCc1cc(F)c(C(F)(F)F)c(F)c1)C(=O)O; hPhe(3-Cl-4-CF3) = N[C@@H](CCc1ccc(C(F)(F)F)c(Cl)c1)C(=O)O; hPhe(3-F,4-CF3) = N[C@@H](CCc1ccc(C(F)(F)F)c(F)c1)C(=O)O; NMePhe(4-CF3) = CN[C@@H](Cc1ccc(C(F)(F)F)cc1)C(=O)O; X52 = CN([C@@H](Cc1ccccc1OC(F)(F)F)C(=O)[*:2])[*:1]; NMeAbu(4,4,4-F3) = CN[C@@H](CC(F)(F)F)C(=O)O; NMePhe(4-Cl) = CN[C@@H](Cc1ccc(Cl)cc1)C(=O)O; NMePhe(4-Me) = CN[C@@H](Cc1ccc(C)cc1)C(=O)O; X109 = O=C([C@H](Cc1cccc(I)c1F)N[*:1])[*:2]; NMedβ3hAla = C[C@H](CC(=O)[*:2])N(C)[*:1]; Phe(3-Br) = N[C@@H](Cc1cccc(Br)c1)C(=O)O; Phe(3-I) = N[C@@H](Cc1cccc(I)c1)C(=O)O; Pro(4,4-F2) = O=C(O)[C@@H]1CC(F)(F)CN1; NMeY = CN[C@@H](Cc1ccc(O)cc1)C(=O)O; NMeCha = CN[C@@H](CC1CCCCC1)C(=O)O; NMeChg = CN[C@H](C(=O)O)C1CCCCC1; NMeI = CC[C@H](C)[C@H](NC)C(=O)O; NMeD = CN[C@@H](CC(=O)O)C(=O)O; NMeL = CN[C@@H](CC(C)C)C(=O)O; d(β3hA) = C[C@@H](N)CC(=O)O; NMeAbu = CC[C@H](NC)C(=O)O; Pip = O=C(O)[C@@H]1CCCCN1; NMeA = CN[C@@H](C)C(=O)O; NMeAib = CNC(C)(C)C(=O)O; Nle = CCCC[C@H](N)C(=O)O; Piperidide = C1CCN(*)CC1; Ac5c = NC1(C(=O)O)CCCC1; Aze = O=C(O)[C@@H]1CCN1; Isopentyl = CC(C)CC*; Sar = CNCC(=O)O

In this assay the test system is Human pancreatic cancer cell line AsPC-1 (G12D mutation Kras). The assay can be described thus: AsPC-1 cell growth inhibition (AsPC-1 CGI). The conditions noted are these: read-out: AsPC-1 cell growth inhibition, 50% growth inhibitory concentration (IC50 value); 96 hours, CellTiter-Glo, values classified in ranges. The class given is cell-based. For orientation: In ATP-based viability assays light output follows the ATP content of the culture.
Experimental: Test compounds were serially dilated with dimethyl sulfoxide, and 200 nL was then dispensed to a U-bottom 96-well plate using Labcyte Echo. […] The cell suspension was dispensed to a. plate containing a test compound at 100 μL per well and incubated at 37° C. in a 5% carbon dioxide gas incubator. 96 hours later, 80 μL of CellTiter-Glo (Promega) was added to each well and fluorescence was measured.
With `CC(C)CCOC[C@@H]1NC(=O)[C@H](CC(C)C)N(C)C(=O)C[C@@H](C(=O)N2CCCCC2)N(C)C(=O)[C@H](C2CCCCC2)N(C)C(=O)C2(CCCC2)NC(=O)[C@@H]2CCCN2C(=O)[C@H](CCc2ccc(C(F)(F)F)c(Cl)c2)NC(=O)CN(C)C(=O)[C@H](CC2CCCCC2)N(C)C(=O)CN(C)C(=O)CN(C)C1=O` [Compound 794] ([NMeL]S(Isopentyl)[Sar][Sar][NMeCha][Sar][hPhe(3-Cl-4-CF3)]P[Ac5c][NMeChg][NMeD]-Piperidide; lactam N-11), the IC50 is > 500 nM.

For the compound `CC[C@H](C)[C@@H]1NC(=O)[C@H](CC(C)C)N(C)C(=O)C[C@@H](C(=O)N2CCCCC2)N(C)C(=O)[C@H](C2CCCCC2)N(C)C(=O)C2(CCCC2)NC(=O)[C@@H]2CCCN2C(=O)[C@H](CCc2ccc(C(F)(F)F)c(Cl)c2)NC(=O)CN(C)C(=O)[C@H](CC(F)(F)F)N(C)C(=O)CN(C)C(=O)CN(C)C1=O` [Compound 1841] ([NMeL]I[Sar][Sar][NMeAbu(4,4,4-F3)][Sar][hPhe(3-Cl-4-CF3)]P[Ac5c][NMeChg][NMeD]-Piperidide; lactam N-11), the IC50 is > 500 nM.

Regarding `CCCC[C@@H]1NC(=O)[C@H](Cc2cccc(Br)c2)NC(=O)CN(C)C(=O)[C@H](Cc2ccc(Cl)cc2)N(C)C(=O)CN(C)C(=O)CN(C)C(=O)[C@H]([C@@H](C)CC)NC(=O)[C@H](CC(C)C)N(C)C(=O)C[C@@H](C(=O)N2CCCCC2)N(C)C(=O)[C@H](CC(C)C)NC(=O)C(C)(C)N(C)C1=O` [Compound 1404] ([NMeL]I[Sar][Sar][NMePhe(4-Cl)][Sar][Phe(3-Br)][Nle][NMeAib]L[NMeD]-Piperidide; lactam N-11), the IC50 was > 500 nM.

On to `CC[C@H](C)[C@@H]1NC(=O)[C@H](CC(C)C)N(C)C(=O)C[C@@H](C)N(C)C(=O)[C@H]([C@@H](C)CC)N(C)C(=O)C2(CCCC2)NC(=O)[C@@H]2CC(F)(F)CN2C(=O)[C@H](CCc2cc(F)c(C(F)(F)F)c(F)c2)NC(=O)CN(C)C(=O)[C@H](Cc2ccc(C(F)(F)F)cc2)N(C)C(=O)[C@@H]2CCN2C(=O)[C@H](C)N(C)C1=O` [Compound 863] (cyclo([Ac5c][NMeI][NMedβ3hAla][NMeL]I[NMeA][Aze][NMePhe(4-CF3)][Sar][hPhe(3,5-F2-4-CF3)][Pro(4,4-F2)])), for which the IC50 was ≤ 20 nM.

Turning to `CCCC[C@@H]1NC(=O)[C@H](Cc2cccc(I)c2F)NC(=O)CN(C)C(=O)[C@H](Cc2ccc(OC)cc2)N(C)C(=O)[C@@H]2CCN2C(=O)[C@H](C)N(C)C(=O)[C@H]([C@@H](C)CC)NC(=O)[C@H](CC)N(C)C(=O)C[C@@H](C(=O)N2CCCCC2)N(C)C(=O)[C@H](CC(C)C)NC(=O)C(C)(C)N(C)C1=O` [Compound 1249] ([NMeAbu]I[NMeA][Aze][NMeY](Me)[Sar][X109][Nle][NMeAib]L[NMeD]-Piperidide; lactam N-11), the IC50 was > 500 nM.

Turning to `CC[C@H](C)[C@@H]1NC(=O)[C@H](CC(C)C)N(C)C(=O)C[C@@H](C(=O)N(C)C)N(C)C(=O)[C@H]([C@@H](C)CC)N(C)C(=O)[C@H](C)NC(=O)[C@H](C)N(C)C(=O)[C@H](CCc2ccc(C(F)(F)F)c(Cl)c2)NC(=O)CN(C)C(=O)[C@H](Cc2ccc(C)cc2)N(C)C(=O)[C@@H]2CCN2C(=O)[C@H](C)N(C)C1=O` [Compound 715] ([NMeL]I[NMeA][Aze][NMePhe(4-Me)][Sar][hPhe(3-Cl-4-CF3)][NMeA]A[NMeI][NMeD]-NMe2; lactam N-11), the IC50 was > 500 nM.

`CC[C@H](C)[C@@H]1NC(=O)[C@H](CC(C)C)N(C)C(=O)C[C@@H](C)NC(=O)[C@H](CC(C)C)N(C)C(=O)C2(CCCC2)NC(=O)[C@@H]2CCCN2C(=O)[C@H](CCc2ccc(C(F)(F)F)c(F)c2)NC(=O)CN(C)C(=O)[C@H](CC2CCCCC2)N(C)C(=O)CN(C)C(=O)CN(C)C1=O` [Compound 402] (cyclo([Ac5c][NMeL][d(β3hA)][NMeL]I[Sar][Sar][NMeCha][Sar][hPhe(3-F,4-CF3)]P)): the IC50 is > 500 nM.

Turning to `CCCC[C@@H]1NC(=O)[C@H](CCc2ccc(C(F)(F)F)c(Cl)c2)NC(=O)CN(C)C(=O)[C@H](Cc2ccc(Cl)cc2)N(C)C(=O)[C@@H]2CCN2C(=O)CN(C)C(=O)[C@H]([C@@H](C)CC)NC(=O)[C@@H]2CCCCN2C(=O)C[C@@H](C(=O)N2CCCCC2)N(C)C(=O)[C@H](CC(C)C)NC(=O)C(C)(C)N(C)C1=O` [Compound 352] ([Pip]I[Sar][Aze][NMePhe(4-Cl)][Sar][hPhe(3-Cl-4-CF3)][Nle][NMeAib]L[NMeD]-Piperidide; lactam N-11), the IC50 was > 500 nM.

Consider `CCCC[C@@H]1NC(=O)[C@H](Cc2cccc(I)c2)NC(=O)CN(C)C(=O)[C@H](Cc2ccc(Cl)cc2)N(C)C(=O)CN(C)C(=O)CN(C)C(=O)[C@H]([C@@H](C)CC)NC(=O)[C@H](CC(C)C)N(C)C(=O)C[C@@H](C(=O)N2CCCCC2)N(C)C(=O)[C@H](CC(C)C)NC(=O)[C@H](Cc2ccccc2OC(F)(F)F)N(C)C1=O` [Compound 111] ([NMeL]I[Sar][Sar][NMePhe(4-Cl)][Sar][Phe(3-I)][Nle][X52]L[NMeD]-Piperidide; lactam N-11), for which the IC50 was > 500 nM.
